PMC11277489, “Novel Piperazine Derivatives of Vindoline as Anticancer Agents” (International Journal of Molecular Sciences, 2024)

Legend:
HL-60(TB) = assay: NCI60 one-dose screen (10 μM), Leukemia; format: cell-based; conditions: Homo sapiens; 10 μM; HL-60(TB), Leukemia; read-out: Growth percent rate
K-562 = assay: NCI60 one-dose screen (10 μM), Leukemia; format: cell-based; conditions: Homo sapiens, K562; 10 μM; K-562, Leukemia; read-out: Growth percent rate
MOLT-4 = assay: NCI60 one-dose screen (10 μM), Leukemia; format: cell-based, human; conditions: Homo sapiens; 10 μM; MOLT-4, Leukemia; read-out: Growth percent rate
RPMI-8226 = assay: NCI60 one-dose screen (10 μM), Leukemia; format: cell-based; conditions: Homo sapiens; 10 μM; RPMI-8226, Leukemia; read-out: Growth percent rate
A549/ATCC = assay: NCI60 one-dose screen (10 μM), Non-small Cell Lung Cancer; format: cell-based; conditions: Homo sapiens; 10 μM; A549/ATCC, Non-small Cell Lung Cancer; read-out: Growth percent rate
EKVX = assay: as above; format: cell-based; conditions: Homo sapiens, 10 μM, Non-small Cell Lung Cancer, read-out: Growth percent rate
HOP-62 = assay: as above; format: cell-based; conditions: Homo sapiens; 10 μM; HOP-62, Non-small Cell Lung Cancer; read-out: Growth percent rate
NCI-H23 = assay: as above; format: cell-based; conditions: Homo sapiens; 10 μM; NCI-H23, Non-small Cell Lung Cancer; read-out: Growth percent rate
NCI-H322M = assay: as above; format: cell-based; conditions: Homo sapiens, 10 μM, Non-small Cell Lung Cancer, read-out: Growth percent rate
NCI-H460 = assay: as above; format: cell-based; conditions: Homo sapiens; 10 μM; NCI-H460, Non-small Cell Lung Cancer; read-out: Growth percent rate
NCI-H522 = assay: as above; format: cell-based; conditions: Homo sapiens; 10 μM; NCI-H522, Non-small Cell Lung Cancer; read-out: Growth percent rate
COLO 205 = assay: NCI60 one-dose screen (10 μM), Colon Cancer; format: cell-based, human; conditions: for activity at 10 µM: Homo sapiens, COLO 205, Colon Cancer, read-out: Growth percent rate
HCC-2998 = assay: NCI60 one-dose screen (10 μM), Colon Cancer; format: cell-based; conditions: Homo sapiens; 10 μM; HCC-2998, Colon Cancer; read-out: Growth percent rate
HCT-116 = assay: NCI60 one-dose screen (10 μM), Colon Cancer; format: cell-based; conditions: Homo sapiens; 10 μM; HCT-116, Colon Cancer; read-out: Growth percent rate
HCT-15 = assay: NCI60 one-dose screen (10 μM), Colon Cancer; format: cell-based; conditions: Homo sapiens; 10 μM; HCT-15, Colon Cancer; read-out: Growth percent rate
HT29 = assay: NCI60 one-dose screen (10 μM), Colon Cancer; format: cell-based; conditions: Homo sapiens, HT-29; 10 μM; HT29, Colon Cancer; read-out: Growth percent rate
SW-620 = assay: NCI60 one-dose screen (10 μM), Colon Cancer; format: cell-based; conditions: Homo sapiens; 10 μM; SW-620, Colon Cancer; read-out: Growth percent rate
SF-268 = assay: NCI60 one-dose screen (10 μM), CNS Cancer; format: cell-based; conditions: Homo sapiens; 10 μM; SF-268, CNS Cancer; read-out: Growth percent rate
SF-295 = assay: NCI60 one-dose screen (10 μM), CNS Cancer; format: cell-based; conditions: Homo sapiens; 10 μM; SF-295, CNS Cancer; read-out: Growth percent rate
SF-539 = assay: NCI60 one-dose screen (10 μM), CNS Cancer; format: cell-based, human; conditions: for activity at 10 µM: Homo sapiens, SF-539, CNS Cancer, read-out: Growth percent rate
SNB-19 = assay: NCI60 one-dose screen (10 μM), CNS Cancer; format: cell-based; conditions: Homo sapiens; 10 μM; SNB-19, CNS Cancer; read-out: Growth percent rate
U251 = assay: NCI60 one-dose screen (10 μM), CNS Cancer; format: cell-based; conditions: Homo sapiens, U-251; 10 μM; U251, CNS Cancer; read-out: Growth percent rate
LOX IMVI = assay: NCI60 one-dose screen (10 μM), Melanoma; format: cell-based, human; conditions: Homo sapiens; 10 μM; LOX IMVI, Melanoma; read-out: Growth percent rate
MALME-3M = assay: NCI60 one-dose screen (10 μM), Melanoma; format: cell-based; conditions: Homo sapiens; 10 μM; MALME-3M, Melanoma; read-out: Growth percent rate
M14 = assay: NCI60 one-dose screen (10 μM), Melanoma; format: cell-based; conditions: Homo sapiens; 10 μM; M14, Melanoma; read-out: Growth percent rate
MDA-MB-435 = assay: NCI60 one-dose screen (10 μM), Melanoma; format: cell-based; conditions: Homo sapiens; 10 μM; MDA-MB-435, Melanoma; read-out: Growth percent rate
SK-MEL-28 = assay: NCI60 one-dose screen (10 μM), Melanoma; format: cell-based; conditions: Homo sapiens; 10 μM; SK-MEL-28, Melanoma; read-out: Growth percent rate
SK-MEL-5 = assay: NCI60 one-dose screen (10 μM), Melanoma; format: cell-based, human; conditions: for activity at 10 µM: Homo sapiens, SK-MEL-5, Melanoma, read-out: Growth percent rate
UACC-257 = assay: NCI60 one-dose screen (10 μM), Melanoma; format: cell-based; conditions: Homo sapiens; 10 μM; UACC-257, Melanoma; read-out: Growth percent rate
IGROV1 = assay: NCI60 one-dose screen (10 μM), Ovarian Cancer; format: cell-based; conditions: Homo sapiens, IGROV-1; 10 μM; IGROV1, Ovarian Cancer; read-out: Growth percent rate
OVCAR-4 = assay: NCI60 one-dose screen (10 μM), Ovarian Cancer; format: cell-based; conditions: Homo sapiens; 10 μM; OVCAR-4, Ovarian Cancer; read-out: Growth percent rate
OVCAR-8 = assay: NCI60 one-dose screen (10 μM), Ovarian Cancer; format: cell-based; conditions: Homo sapiens; 10 μM; OVCAR-8, Ovarian Cancer; read-out: Growth percent rate
786–0 = assay: NCI60 one-dose screen (10 μM), Renal Cancer; format: cell-based; conditions: Homo sapiens; 10 μM; 786-0, Renal Cancer; read-out: Growth percent rate
A498 = assay: NCI60 one-dose screen (10 μM), Renal Cancer; format: cell-based; conditions: Homo sapiens; 10 μM; A498, Renal Cancer; read-out: Growth percent rate
ACHN = assay: NCI60 one-dose screen (10 μM), Renal Cancer; format: cell-based; conditions: Homo sapiens, 10 μM, Renal Cancer, read-out: Growth percent rate
CAKI-1 = assay: NCI60 one-dose screen (10 μM), Renal Cancer; format: cell-based; conditions: Homo sapiens; 10 μM; CAKI-1, Renal Cancer; read-out: Growth percent rate
RXF 393 = assay: NCI60 one-dose screen (10 μM), Renal Cancer; format: cell-based, human; conditions: for activity at 10 µM: Homo sapiens, RXF 393, Renal Cancer, read-out: Growth percent rate
SN12C = assay: NCI60 one-dose screen (10 μM), Renal Cancer; format: cell-based; conditions: Homo sapiens, 10 μM, Renal Cancer, read-out: Growth percent rate
TK-10 = assay: NCI60 one-dose screen (10 μM), Renal Cancer; format: cell-based; conditions: Homo sapiens; 10 μM; TK-10, Renal Cancer; read-out: Growth percent rate
MCF7 = assay: NCI60 one-dose screen (10 μM), Breast Cancer; format: cell-based; conditions: Homo sapiens; 10 μM; MCF7, Breast Cancer; read-out: Growth percent rate
HS 578T = assay: NCI60 one-dose screen (10 μM), Breast Cancer; format: cell-based; conditions: Homo sapiens; 10 μM; HS 578T, Breast Cancer; read-out: Growth percent rate
[1] = system: 60 human tumor cell lines (NCI60); assay: NCI60 one-dose screen (10 μM), whole panel; format: cell-based; conditions: for activity at 10 µM: mean over 60 human cancer cell lines, read-out: Growth percent rate, Mean

Compound: CC[C@]12C=CCN3CC[C@@]4(c5ccc(OC)cc5N(C)[C@H]4[C@@](O)(C(=O)OC)[C@@H]1OC(=O)CCCN1CCN(c4ccc(C(F)(F)F)cc4)CC1)[C@@H]32 [Compound 22]
- activity at 10 µM (HL-60(TB)): 7.9%
- activity at 10 µM (K-562): 6.96%
- activity at 10 µM (MOLT-4): 9.3%
- activity at 10 µM (RPMI-8226): -9.29%
- activity at 10 µM (A549/ATCC): 4.54%
- activity at 10 µM (EKVX): -49.9%
- activity at 10 µM (HOP-62): 0.03%
- activity at 10 µM (NCI-H23): -61.1%
- activity at 10 µM (NCI-H322M): 50.5%
- activity at 10 µM (NCI-H460): -36.9%
- activity at 10 µM (NCI-H522): -86%
- growth percent rate (COLO 205; 10 μM one-dose, COLO-205 colon cancer, negative = lethality): −93.46%
- activity at 10 µM (COLO 205): -93.5%
- activity at 10 µM (HCC-2998): -82.3%
- activity at 10 µM (HCT-116): -25.6%
- activity at 10 µM (HCT-15): -82.9%
- activity at 10 µM (HT29): -70.3%
- activity at 10 µM (SW-620): 7.47%
- activity at 10 µM (SF-268): 0.04%
- activity at 10 µM (SF-295): -84.8%
- growth percent rate (SF-539; 10 μM one-dose, SF-539 CNS cancer, negative = lethality): −96.98%
- activity at 10 µM (SF-539): -97%
- activity at 10 µM (SNB-19): -3.08%
- activity at 10 µM (U251): -88.4%
- activity at 10 µM (LOX IMVI): -97.2%
- activity at 10 µM (MALME-3M): -90.3%
- activity at 10 µM (M14): -75.5%
- activity at 10 µM (MDA-MB-435): -78.9%
- activity at 10 µM (SK-MEL-28): -92.1%
- growth percent rate (SK-MEL-5; 10 μM one-dose, SK-MEL-5 melanoma, negative = lethality): −98.54%
- activity at 10 µM (SK-MEL-5): -98.5%
- activity at 10 µM (UACC-257): -79.3%
- activity at 10 µM (IGROV1): -28.9%
- activity at 10 µM (OVCAR-4): -18.9%
- activity at 10 µM (OVCAR-8): -47.4%
- activity at 10 µM (786–0): -72.7%
- activity at 10 µM (A498): -15.1%
- activity at 10 µM (ACHN): -20.3%
- activity at 10 µM (CAKI-1): -65%
- growth percent rate (RXF 393; 10 μM one-dose, RXF-393 renal cancer, negative = lethality): −91.93%
- activity at 10 µM (RXF 393): -91.9%
- activity at 10 µM (SN12C): -66.4%
- activity at 10 µM (TK-10): -48.5%
- activity at 10 µM (MCF7): -51.5%
- activity at 10 µM (HS 578T): -46.2%
- activity at 10 µM [1]: -44.5%

Compound: CC[C@]12C=CCN3CC[C@@]4(c5ccc(OC)cc5N(C)[C@H]4[C@@](O)(C(=O)OC)[C@@H]1OC(=O)CCCN1CCN(Cc4ccc(C(F)(F)F)cc4)CC1)[C@@H]32 [Compound 23]
- activity at 10 µM (HL-60(TB)): -65.8%
- activity at 10 µM (K-562): -73.3%
- activity at 10 µM (MOLT-4): -68.5%
- activity at 10 µM (RPMI-8226): -58.3%
- activity at 10 µM (A549/ATCC): -67.8%
- activity at 10 µM (EKVX): -75.1%
- activity at 10 µM (HOP-62): -86.7%
- activity at 10 µM (NCI-H23): -71.3%
- activity at 10 µM (NCI-H322M): -48.2%
- activity at 10 µM (NCI-H460): -84.7%
- activity at 10 µM (NCI-H522): -59.3%
- activity at 10 µM (COLO 205): -82.9%
- activity at 10 µM (HCC-2998): -83.6%
- activity at 10 µM (HCT-116): -89.3%
- activity at 10 µM (HCT-15): -68.1%
- activity at 10 µM (HT29): -54.4%
- activity at 10 µM (SW-620): -87.1%
- activity at 10 µM (SF-268): -55.1%
- activity at 10 µM (SF-295): -86.7%
- activity at 10 µM (SF-539): -98.5%
- activity at 10 µM (SNB-19): -89.1%
- activity at 10 µM (U251): -78.1%
- activity at 10 µM (LOX IMVI): -54.4%
- activity at 10 µM (MALME-3M): -95.2%
- activity at 10 µM (M14): -88.9%
- activity at 10 µM (MDA-MB-435): -95.3%
- activity at 10 µM (SK-MEL-28): -94.8%
- activity at 10 µM (SK-MEL-5): -98.5%
- activity at 10 µM (UACC-257): -82.2%
- activity at 10 µM (IGROV1): -71%
- activity at 10 µM (OVCAR-4): -32.1%
- activity at 10 µM (OVCAR-8): -42%
- activity at 10 µM (786–0): -95.7%
- activity at 10 µM (A498): -93.9%
- activity at 10 µM (ACHN): -78.1%
- activity at 10 µM (CAKI-1): -78%
- activity at 10 µM (RXF 393): -85.3%
- activity at 10 µM (SN12C): -4.35%
- activity at 10 µM (TK-10): -81.7%
- activity at 10 µM (MCF7): -74.3%
- activity at 10 µM (HS 578T): -61.1%
- growth rate ([1]; 10 μM one-dose, on almost all tested cancer types and cell lines, negative = lethality): < −60%
- activity at 10 µM [1]: -71.8%
